From patent publication US20260070927A1, “INDAZOLE MACROCYCLES FOR THE TREATMENT OF AUTOIMMUNE DISEASE” (Hoffmann-La Roche Inc., priority 2022, published 2026) come the findings set out here.

The subject of one series is STING (IFN-β in hPBMC). Put plainly: hPBMC cytokine functional assay (IFN-β decrease after Baculovirus stimulation). It counts as cell-based. Particulars: Homo sapiens, Baculovirus MOI 40, 24 hours, read-out: hPBMC_IC50. The essentials:
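Thawed hPBMC (70K cells/well) rested ≥3 h, then dosed with compound (final 0.5% DMSO) and infected with Baculovirus at MOI 40. Secreted IFN-β read by HTRF after 24 h at 37 °C. Cell viability checked in parallel by CellTiter-Glo.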

For another series, the target named is hERG channel (Homo sapiens (Human), UniProt Q12809). Put plainly: hERG channel inhibition assay (patch-clamp, CHOhERG cells). In kind it is cell-based. Particulars: for IC20: human, CHO cells stably expressing hERG (CHOhERG). The source says:
The hERG K^+ channels were cloned in humans and stably expressed in a CHO (Chinese hamster ovary) cell line. CHOhERG cells (obtained from Roche Palo Alto LLC Cell Core Facilities) were used for patch-clamp (voltage-clamp, whole-cell) experiments. Cells were stimulated by a voltage pattern to activate hERG channels and conduct IKhERG currents (rapid delayed outward rectifier potassium current of the hERG channel). After the cells were stabilized in an internal solution that contains (in mM): KCl 10, KF 100, NaCl 10, HEPES 10, EGTA 20, pH=7.2 with KOH (osmolarity 260-300 mOsm) for a few minutes, the amplitude and kinetics of IKhERG were recorded at a stimulation frequency of 0.1 Hz (6 bpm). Thereafter, the test compound was dissolved in extracellular solution that contains (in mM): NaCl 150, KCl 4, CaCl2 1.2, MgCl2 1, HEPES 10, glucose 5, pH 7.2-7.4 with NaOH (osmolarity 290-330 mOsm), and was added to the preparation at increasing concentrations. For each concentration, an attempt was made to reach a steady-state effect, usually, this was achieved within 3-10 min at which time the next highest concentration was applied. The amplitude and kinetics of IKhERG are recorded in each concentration of the drug which were compared to the control values (taken as 100%).
Background: Block of hERG is tested as a sign of cardiac risk.

Series [1] can be described thus: Metabolic (liver microsomal) stability assay. Particulars: human liver microsomes, 1 μM test compound.
Protocol: (§1) The liver microsomal stability assay is used for early assessment of metabolic stability of a test compound in liver microsomes.
(§2) Liver microsomes were preincubated with test compound for 10 minutes at 37° C. in 100 mM potassium phosphate buffer, pH 7.4. The reactions were initiated by adding NADPH regenerating system. The final incubation mixtures contained 1 μM test compound, 0.5 mg/mL liver microsomal protein, 1 mM MgCl2, 1 mM NADP, 1 unit/mL isocitric dehydrogenase and 6 mM isocitric acid in 100 mM potassium phosphate buffer, pH 7.4. After incubation times of 0, 3, 6, 9, 15 and 30 minutes at 37° C., 300 μL of cold acetonitrile (including internal standard) was added to 100 μL incubation mixture to terminate the reaction. Following precipitation and centrifugation, the amount of compound remaining in the samples were determined by LC-MS/MS. Controls of no NADPH regenerating system at zero and 30 minutes were also prepared and analyzed.
Series [2] in a line: Single dose pharmacokinetics (SDPK) study in male C57BL/6J mice. In kind it is in vivo. As to conditions: mouse; for clearance / AUC / half-life / Vd / Cmax: male, C57BL/6J, plasma; for half-life: read-out: T½ (converted); for Vd: read-out: Vss; for F: dose normalized AUCo-last after IV 1 mg/kg and PO 10 mg/kg. How it is done: Single Dose Pharmacokinetics (SDPK) Study in Male C57BL/6J Mice Pharmacokinetic properties of compounds were assessed by single dose PK studies in Male C57BL/6J Mice (vendor: WTLH-BJ). Briefly, two groups of animals were administered a single dose of respective compound intravenously (IV, bolus) at 1 mg/kg or orally (PO, by gavage) at 10 mg/kg. Blood samples were collected via Jugular vein at 5 min (only for IV), 15 min, 30 min, 1 h, 2 h, 4 h, 7 h and 24 h post-dose. Blood samples were placed into pre-chilled commercial EDTA-K2 tubes (vendor: Jiangsu Kangjian medical supplies co., LTD) and centrifuged at 3,200 g for 10 min at 4° C. to separate plasma from the samples. After centrifugation, the resulting plasma was transferred to clean tubes for bioanalysis with LC/MS/MS. The pharmacokinetic parameters were calculated using noncompartmental analysis. The volume of distribution (Vss), half-life (T1/2) and clearance (CL) were obtained based on the plasma concentration-time curve after IV dose. The peak concentration (Cmax) was recorded directly from experimental observations after PO dose. The area under the plasma concentration-time curve (AUCo-last) was calculated using the linear trapezoidal linear interpolation rule up to the last detectable concentration. The bioavailability (F) was calculated based on the dose normalized AUCo-last after IV and PO dose.

Series [3] deals with human stimulator of interferon genes (STING) (139-379) (Homo sapiens (Human), UniProt Q86WV6). Put plainly: Microliter plate-based TR-FRET competition-binding assay for binders of STING. As to conditions: Alexa488 probe, read-out: FRET_IC50. The method, boiled down: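 E. coli-expressed C-terminal flag-tagged STING (139-379) at 2.5 nM with 2.5 nM Tb-anti-Flag and 250 nM Alexa488-labelled active-site probe, 30 min at room temperature. TR-FRET 520/485 nm ratio after 320 nm excitation. Percent inhibition calculated relative to the 2′3′cGAMP positive control.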
human stimulator of interferon genes (STING) (139-379), sequence (Q86WV6 139-379): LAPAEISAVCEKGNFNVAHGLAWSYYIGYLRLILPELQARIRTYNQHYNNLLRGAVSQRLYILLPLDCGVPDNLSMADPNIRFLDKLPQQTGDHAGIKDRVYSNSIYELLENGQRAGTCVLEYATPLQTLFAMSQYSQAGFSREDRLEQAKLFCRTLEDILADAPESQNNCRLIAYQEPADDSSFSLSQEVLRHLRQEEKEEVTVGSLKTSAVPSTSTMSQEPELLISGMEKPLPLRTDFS
(TR-FRET usually uses a lanthanide donor and a delayed reading to cut background.)

The conditions of series [4]: microsomes.
Protocol: as §1, §2
Setting [5] is: IV 1 mg/kg, read-out: IV AUCo-last.
Setting [6] is: PO 10 mg/kg, read-out: PO AUCo-last.

SMILES strings stand for the structures. Like-named read-outs stand apart in the source and are kept apart here.

hERG channel, sequence (Q12809 whole entry): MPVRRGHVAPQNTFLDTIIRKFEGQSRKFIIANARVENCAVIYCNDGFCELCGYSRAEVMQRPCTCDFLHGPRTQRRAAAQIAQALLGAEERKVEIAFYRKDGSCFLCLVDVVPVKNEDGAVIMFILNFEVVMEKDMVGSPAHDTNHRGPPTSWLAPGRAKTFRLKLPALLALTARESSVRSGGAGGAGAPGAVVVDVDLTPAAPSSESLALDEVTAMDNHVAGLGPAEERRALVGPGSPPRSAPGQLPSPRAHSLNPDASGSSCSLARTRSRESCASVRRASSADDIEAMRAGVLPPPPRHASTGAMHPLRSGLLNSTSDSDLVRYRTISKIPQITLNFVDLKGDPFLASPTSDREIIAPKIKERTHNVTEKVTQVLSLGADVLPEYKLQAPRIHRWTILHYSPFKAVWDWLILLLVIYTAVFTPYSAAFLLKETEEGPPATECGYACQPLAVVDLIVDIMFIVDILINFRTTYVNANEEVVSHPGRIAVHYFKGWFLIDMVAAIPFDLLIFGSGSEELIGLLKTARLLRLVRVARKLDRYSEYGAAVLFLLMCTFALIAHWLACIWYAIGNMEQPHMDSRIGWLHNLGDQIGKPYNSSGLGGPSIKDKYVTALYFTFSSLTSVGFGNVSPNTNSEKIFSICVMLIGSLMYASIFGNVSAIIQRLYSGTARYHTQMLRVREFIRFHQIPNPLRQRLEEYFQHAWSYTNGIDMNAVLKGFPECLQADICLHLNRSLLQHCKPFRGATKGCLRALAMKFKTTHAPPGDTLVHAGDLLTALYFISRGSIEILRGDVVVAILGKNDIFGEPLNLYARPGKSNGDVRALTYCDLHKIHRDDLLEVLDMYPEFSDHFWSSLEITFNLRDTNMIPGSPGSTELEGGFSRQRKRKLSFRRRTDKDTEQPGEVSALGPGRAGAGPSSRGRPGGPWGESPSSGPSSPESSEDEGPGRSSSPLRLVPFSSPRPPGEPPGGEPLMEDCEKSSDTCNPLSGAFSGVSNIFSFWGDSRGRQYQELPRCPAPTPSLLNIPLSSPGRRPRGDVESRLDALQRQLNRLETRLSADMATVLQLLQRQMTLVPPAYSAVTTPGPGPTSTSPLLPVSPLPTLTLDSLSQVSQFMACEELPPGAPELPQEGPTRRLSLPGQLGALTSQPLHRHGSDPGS

As a reminder, the IC20 is the concentration needed for an effect of 20%. The low end stands for greater potency, the high end for weaker potency. What is called clearance is the rate of elimination divided by the concentration. The Cmax is the peak of the concentration-time curve. For the compound `COc1cc(F)ccc1-n1ncc2c(N3C[C@@H]4C[C@H]3C(=O)N(C)CCCc3c5c(cccc5nn3C)-c3ccnc(n3)N4)ncnc21` [Example 6, (8S,11S)-10-[1-(4-fluoro-2-methoxy-phenyl)pyrazolo[3,4-d]pyrimidin-4-yl]-13,18-dimethyl-5,7,10,13,18,19,26-heptazapentacyclo[15.6.1.1^2,6.1^8,11.0^20,24]hexacosa-1(23),2,4,6(26),17(24),19,21-heptaen-12-one], the IC50 in the series with STING (IFN-β in hPBMC) was found to be 0.588 µM. At hERG channel, this compound came in with an IC50 above 20 µM and an IC20 above 10 µM. Besides, in series [1], the “Clearance of human microsome” value was 0.942 L/h/kg. Besides, in series [2] (IV 1 mg/kg), the clearance was 0.87 L/h/kg, the half-life was 48 min and the Vd stood at 0.9 L/kg. Besides, the AUC in series [2] (setting [5]) worked out at 1.12 µg·h/mL. The compound also gave a Cmax in series [2] (PO 10 mg/kg) of 2.99 µg/mL. Further, in series [2] (setting [6]), the AUC came out at 4.74 µg·h/mL. Further, the F in series [2] is listed as 42%. Also, the IC50 in series [3] came to 0.005 µM.
For `CN1CCCc2c3c(cccc3nn2C)-c2cccc(n2)O[C@H]2C[C@@H](C1=O)N(c1ncnc3c1cnn3-c1ccc(F)cc1F)C2` [Example 9, (8S,11S)-10-[1-(2,4-difluorophenyl)pyrazolo[3,4-d]pyrimidin-4-yl]-13,18-dimethyl-7-oxa-10,13,18,19,26-pentazapentacyclo[15.6.1.1^2,6.1^8,11.0^20,24]hexacosa-1(23),2(26),3,5,17(24),19,21-heptaen-12-one], the IC50 in the series on STING (IFN-β in hPBMC) is 1.58 µM; against hERG channel it was above 20 µM; in series [3] it was 0.0178 µM. Besides, on hERG channel, the IC20 is above 10 µM. Moreover, in series [1], the “Clearance of human microsome” value was 0.696 L/h/kg.
As for `Cn1nc2cccc3c2c1CCCNC(=O)[C@@H]1C[C@@H](CN1c1ncnc2c1cnn2-c1ccc(F)cc1F)Oc1ccnc-3c1` [Example 10, (8S,11S)-10-[1-(2,4-difluorophenyl)pyrazolo[3,4-d]pyrimidin-4-yl]-18-methyl-7-oxa-3,10,13,18,19-pentazapentacyclo[15.6.1.1^2,6.1^8,11.0^20,24]hexacosa-1(23),2(26),3,5,17(24),19,21-heptaen-12-one], on hERG channel, the IC50 was above 10 µM and the IC20 stood at 8.2 µM. For the same compound, the “Clearance of human microsome” value in series [1] was 0.498 L/h/kg. Moreover, in series [3], the IC50 was 0.0051 µM.
With `CN1CCCc2c3c(cccc3nn2C)-c2ccnc(n2)O[C@H]2C[C@@H](C1=O)N(c1ncnc3c1cnn3-c1ccc(F)cc1F)C2` [Example 11, (8S,11S)-10-[1-(2,4-difluorophenyl)pyrazolo[3,4-d]pyrimidin-4-yl]-13,18-dimethyl-7-oxa-5,10,13,18,19,26-hexazapentacyclo[15.6.1.1^2,6.1^8,11.0^20,24]hexacosa-1(23),2(26),3,5,17(24),19,21-heptaen-12-one], the IC50 in the series on STING (IFN-β in hPBMC) was 0.803 µM; at hERG channel it was above 20 µM; in series [3], 0.0214 µM. At hERG channel, the IC20 was above 10 µM. Also, the “Clearance of human microsome” value in series [1] was found to be 0.366 L/h/kg. The clearance in series [2] (IV 1 mg/kg) was 0.666 L/h/kg. Also, the AUC in series [2] (setting [5]) turned out to be 1.5 µg·h/mL; in series [2] (setting [6]), 7.12 µg·h/mL. The half-life in series [2] (IV 1 mg/kg) was 60 min. In series [2] (IV 1 mg/kg), the Vd stood at 0.8 L/kg. In series [2] (PO 10 mg/kg), this compound gave a Cmax of 2.78 µg/mL. Moreover, the F in series [2] was 48%.
`COc1cc(F)ccc1-n1ncc2c(N3C[C@@H]4C[C@H]3C(=O)N(CCCN3CCOCC3)CCCc3c5c(cccc5nn3C)-c3cccc(n3)N4)ncnc21` [Example 43, (8S,11S)-10-[1-(4-fluoro-2-methoxy-phenyl)pyrazolo[3,4-d]pyrimidin-4-yl]-18-methyl-13-(3-morpholinopropyl)-7,10,13,18,19,26-hexazapentacyclo[15.6.1.1^2,6.1^8,11.0^20,24]hexacosa-1(23),2(26),3,5,17(24),19,21-heptaen-12-one]: the IC50 is 0.292 µM in the series on STING (IFN-β in hPBMC), above 20 µM against hERG channel and 0.0035 µM in series [3]. The compound also came in with an IC20 on hERG channel above 10 µM. The “Clearance of human microsome” value in series [1] is 0.72 L/h/kg.
As for `Cn1nc2c(F)ccc3c2c1CCCN(CCCN1CCOCC1)C(=O)[C@@H]1C[C@@H](CN1c1ncnc2c1cnn2-c1ccc(F)cc1F)Nc1cccc-3n1` [Example 44, (8S,11S)-10-[1-(2,4-difluorophenyl)pyrazolo[3,4-d]pyrimidin-4-yl]-21-fluoro-18-methyl-13-(3-morpholinopropyl)-7,10,13,18,19,26-hexazapentacyclo[15.6.1.1^2,6.1^8,11.0^20,24]hexacosa-1(23),2(26),3,5,17(24),19,21-heptaen-12-one], the IC50 in the series with STING (IFN-β in hPBMC) was determined as 0.321 µM; in series [3] it was 0.0063 µM. Moreover, in series [1], the “Clearance of human microsome” value is 0.948 L/h/kg.
The like results for `COc1cc(F)ccc1-n1ncc2c(N3C[C@@H]4C[C@H]3C(=O)N(CCCN3CCOCC3)CCCc3c5c(ccc(F)c5nn3C)-c3cccc(n3)N4)ncnc21` [Example 45, (8S,11S)-21-fluoro-10-[1-(4-fluoro-2-methoxy-phenyl)pyrazolo[3,4-d]pyrimidin-4-yl]-18-methyl-13-(3-morpholinopropyl)-7,10,13,18,19,26-hexazapentacyclo[15.6.1.1^2,6.1^8,11.0^20,24]hexacosa-1(23),2(26),3,5,17(24),19,21-heptaen-12-one] were, in that order, 0.569 µM, 0.0039 µM and 0.954 L/h/kg.
`COc1cc(F)ccc1-n1ncc2c(N3C[C@@H]4C[C@H]3C(=O)N(CCCN3CCOCC3)CCCc3c5c(cccc5nn3C)-c3ccnc(n3)N4)ncnc21` [Example 47, (8S,11S)-10-[1-(4-fluoro-2-methoxy-phenyl)pyrazolo[3,4-d]pyrimidin-4-yl]-18-methyl-13-(3-morpholinopropyl)-5,7,10,13,18,19,26-heptazapentacyclo[15.6.1.1^2,6.1^8,11.0^20,24]hexacosa-1(23),2(26),3,5,17(24),19,21-heptaen-12-one]: in series [4], the “Clearance of human microsome” value was 0.366 L/h/kg. The IC50 in series [3] came to 0.0072 µM.
